Data as given in ChEMBL document CHEMBL2086374, “C-Glucosylated malonitrile as a key intermediate towards carbohydrate-based glycogen phosphorylase inhibitors” (Bioorg Med Chem, 2012).

Tests used:
[1] = biological target: T1, Glycogen phosphorylase, muscle form (Oryctolagus cuniculus) (UniProt P00489); experiment: Inhibition of rabbit skeletal muscle glycogen phosphorylase-B using glucose-1-phosphate substrate assessed as […] in phosphate release at 250 uM
T1 sequence (whole entry): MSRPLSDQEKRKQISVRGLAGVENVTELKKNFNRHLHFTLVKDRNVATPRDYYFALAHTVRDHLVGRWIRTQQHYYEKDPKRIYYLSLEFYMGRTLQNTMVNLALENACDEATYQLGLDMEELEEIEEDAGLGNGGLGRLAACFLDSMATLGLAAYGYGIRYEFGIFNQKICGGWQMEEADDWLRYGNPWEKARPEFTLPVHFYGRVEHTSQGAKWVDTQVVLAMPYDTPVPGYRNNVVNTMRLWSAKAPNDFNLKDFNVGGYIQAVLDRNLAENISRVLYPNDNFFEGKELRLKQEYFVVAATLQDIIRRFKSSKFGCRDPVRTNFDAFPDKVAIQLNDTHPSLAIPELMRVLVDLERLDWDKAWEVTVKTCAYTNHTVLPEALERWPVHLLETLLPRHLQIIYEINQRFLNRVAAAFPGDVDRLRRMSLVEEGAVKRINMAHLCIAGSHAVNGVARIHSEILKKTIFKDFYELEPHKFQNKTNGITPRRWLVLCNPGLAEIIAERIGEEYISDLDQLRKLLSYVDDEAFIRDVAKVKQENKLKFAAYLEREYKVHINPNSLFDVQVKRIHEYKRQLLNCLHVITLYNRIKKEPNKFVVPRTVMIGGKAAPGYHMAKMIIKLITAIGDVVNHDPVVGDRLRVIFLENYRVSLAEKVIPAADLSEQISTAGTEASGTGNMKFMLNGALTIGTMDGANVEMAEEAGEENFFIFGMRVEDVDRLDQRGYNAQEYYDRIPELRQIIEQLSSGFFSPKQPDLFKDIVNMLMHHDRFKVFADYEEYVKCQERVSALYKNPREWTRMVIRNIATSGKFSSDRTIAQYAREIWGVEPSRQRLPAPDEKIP

[2] = Solubility of compound in water in presence of 20% DMSO; format: physicochemical; conditions: buffer
[3] = biological target: T1, Glycogen phosphorylase, muscle form (Oryctolagus cuniculus); experiment: Inhibition of rabbit skeletal muscle glycogen phosphorylase-B using glucose-1-phosphate substrate assessed as […] in phosphate release at 300 uM
[4] = biological target: T1, Glycogen phosphorylase, muscle form (Oryctolagus cuniculus); experiment: Inhibition of rabbit skeletal muscle glycogen phosphorylase-B using glucose-1-phosphate substrate assessed as […] in phosphate release at 1000 uM

Structure (SMILES) | inhibition [4] | other results
OC[C@H]1O[C@@H](C(c2nc(-c3ccc4ccccc4c3)no2)c2nc(-c3ccc4ccccc4c3)no2)[C@H](O)[C@@H](O)[C@@H]1O | – | inhibition [1]: 38%; solubility [2]: Insoluble
O=C(NCC(CNC(=O)c1ccc2ccccc2c1)[C@@H]1O[C@H](CO)[C@@H](O)[C@H](O)[C@H]1O)c1ccc2ccccc2c1 | – | inhibition [3]: 44%
Cc1ccc(-c2noc(C(c3nc(-c4ccc(C)cc4)no3)[C@@H]3O[C@H](CO)[C@@H](O)[C@H](O)[C@H]3O)n2)cc1 | 39% | –

Continued, in another order:

inhibition [4] | Structure (SMILES) | other results
21% | O=C(NCC(CNC(=O)c1ccccc1)[C@@H]1O[C@H](CO)[C@@H](O)[C@H](O)[C@H]1O)c1ccccc1 | –
8.5% | O=C1NCC([C@@H]2O[C@H](CO)[C@@H](O)[C@H](O)[C@H]2O)CN1 | –
